Measured values published in patent US11813245B2, “Sulcardine administration for treatment of acute atrial fibrillation” (HUYABIO International, LLC, priority 2020, dated 2023).
Where a name gives a salt, the structure may show the parent alone. Read-outs that look alike come from different tables or passages of the source.

Assays:
INa-Peak = INa-Peak (Homo sapiens, UniProt Q14524); details: background statement; cited from earlier work
INa-Late = INa-Late (Homo sapiens, UniProt Q14524); details: background statement; cited from earlier work
IKr = IKr (Homo sapiens, UniProt Q12809); details: background statement; cited from earlier work
healthy subjects [1] = assay: Phase 1 single ascending dose trial of intravenous HBI-3000: continuous 12-lead Holter ECG, baseline and placebo subtracted (ΔΔ) ECG intervals at Cmax; assay type: in vivo, human
Protocol: (§1) HBI-3000 (sulcardine sulfate) was administered to human subjects according to the protocol provided in (Clinical Trials.gov Identifier: NCT03397641. That protocol is incorporated herein by reference in its entirety.
(§2) Objective: Provided herein are the safety, tolerability, pharmacokinetics and electrocardiogram (ECG) results of a Phase 1 single ascending dose trial of intravenous (IV) HBI-3000 in healthy subjects.
(§3) Methods: […] subjects were randomized to 6 cohorts of 8 subjects to receive 1 of 5 single ascending iv doses (Table 2) of HBI-3000 or placebo (6:2), with 2 cohorts receiving the 600 mg dose. Doses of HBI-3000 ranged from 20 mg (Cohort A), 60 mg (Cohort B), 180 mg (Cohort C), 360 mg (Cohort D), to 600 mg (Cohort E and F). Drug was a lyophilized powder, reconstituted to […] then diluted in saline for delivery via intravenous infusion as a 50 mL solution over 30 minutes.
Continuous 12-lead Holter ECG data were recorded at baseline and 11 time points thereafter. Mean baseline and placebo subtracted (ΔΔ) ECG intervals (QTcF, HR, PR, QRS, and P-wave duration [PDur]) and T-wave segments (J to T peak [JTp] and T peak to T end [TpTe]) were calculated at Cmax for each dose.
Table 2 summarizes ECG data at Cmax for each dose, as predicted by mixed-effects modeling. […] The increases in QRS and PDur are consistent with block of INa-Peak. The increase in the PR interval is consistent with the increase in PDur and with both INa-Peak and ICa,L inhibition. Prolongation of TpTe is consistent with IKr block, which would be expected, in isolation, to lengthen JTp as well. The observed dose-related reduction of JTp is likely due to counteraction of the effect of HBI-3000 on IKr through its inhibition of both INa-Late, and ICa,L.

healthy subjects [2] = assay: Phase 1 single ascending dose trial of intravenous HBI-3000: safety and tolerability; assay type: in vivo, human; details: single ascending iv doses 20-600 mg
Protocol: as §1, §2, §3

ICa,L = ICa,L (Homo sapiens, UniProt Q13936); details: background statement; cited from earlier work
[3] = Phase 1 single ascending dose trial of intravenous HBI-3000: pharmacokinetics; assay type: in vivo; details: human, plasma
Protocol: as §1, §2, §3
In some instances, the patient is administered 350 mg of HBI-3000.

[4] = Chen et al.; cited from earlier work
[5] = 20 mg single iv infusion over 30 min, at Cmax 135 ng/ml, N=6, concentration-effect regression model
[6] = 60 mg single iv infusion over 30 min, at Cmax 378 ng/ml, N=6, concentration-effect regression model
[7] = 180 mg single iv infusion over 30 min, at Cmax 1530 ng/ml, N=6, concentration-effect regression model
[8] = 360 mg single iv infusion over 30 min, at Cmax 3120 ng/ml, N=5, concentration-effect regression model
[9] = 600 mg single iv infusion over 30 min, at Cmax 5280 ng/ml, N=12, concentration-effect regression model
[10] = concentration-effect regression model, iv doses 20-600 mg
[11] = 20 mg single iv infusion over 30 min, healthy subjects, N=6
[12] = 60 mg single iv infusion over 30 min, healthy subjects, N=6
[13] = 180 mg single iv infusion over 30 min, healthy subjects, N=6
[14] = 360 mg single iv infusion over 30 min, healthy subjects, N=5
[15] = 600 mg single iv infusion over 30 min, healthy subjects, N=12

INa-Late, sequence (Q14524 whole entry): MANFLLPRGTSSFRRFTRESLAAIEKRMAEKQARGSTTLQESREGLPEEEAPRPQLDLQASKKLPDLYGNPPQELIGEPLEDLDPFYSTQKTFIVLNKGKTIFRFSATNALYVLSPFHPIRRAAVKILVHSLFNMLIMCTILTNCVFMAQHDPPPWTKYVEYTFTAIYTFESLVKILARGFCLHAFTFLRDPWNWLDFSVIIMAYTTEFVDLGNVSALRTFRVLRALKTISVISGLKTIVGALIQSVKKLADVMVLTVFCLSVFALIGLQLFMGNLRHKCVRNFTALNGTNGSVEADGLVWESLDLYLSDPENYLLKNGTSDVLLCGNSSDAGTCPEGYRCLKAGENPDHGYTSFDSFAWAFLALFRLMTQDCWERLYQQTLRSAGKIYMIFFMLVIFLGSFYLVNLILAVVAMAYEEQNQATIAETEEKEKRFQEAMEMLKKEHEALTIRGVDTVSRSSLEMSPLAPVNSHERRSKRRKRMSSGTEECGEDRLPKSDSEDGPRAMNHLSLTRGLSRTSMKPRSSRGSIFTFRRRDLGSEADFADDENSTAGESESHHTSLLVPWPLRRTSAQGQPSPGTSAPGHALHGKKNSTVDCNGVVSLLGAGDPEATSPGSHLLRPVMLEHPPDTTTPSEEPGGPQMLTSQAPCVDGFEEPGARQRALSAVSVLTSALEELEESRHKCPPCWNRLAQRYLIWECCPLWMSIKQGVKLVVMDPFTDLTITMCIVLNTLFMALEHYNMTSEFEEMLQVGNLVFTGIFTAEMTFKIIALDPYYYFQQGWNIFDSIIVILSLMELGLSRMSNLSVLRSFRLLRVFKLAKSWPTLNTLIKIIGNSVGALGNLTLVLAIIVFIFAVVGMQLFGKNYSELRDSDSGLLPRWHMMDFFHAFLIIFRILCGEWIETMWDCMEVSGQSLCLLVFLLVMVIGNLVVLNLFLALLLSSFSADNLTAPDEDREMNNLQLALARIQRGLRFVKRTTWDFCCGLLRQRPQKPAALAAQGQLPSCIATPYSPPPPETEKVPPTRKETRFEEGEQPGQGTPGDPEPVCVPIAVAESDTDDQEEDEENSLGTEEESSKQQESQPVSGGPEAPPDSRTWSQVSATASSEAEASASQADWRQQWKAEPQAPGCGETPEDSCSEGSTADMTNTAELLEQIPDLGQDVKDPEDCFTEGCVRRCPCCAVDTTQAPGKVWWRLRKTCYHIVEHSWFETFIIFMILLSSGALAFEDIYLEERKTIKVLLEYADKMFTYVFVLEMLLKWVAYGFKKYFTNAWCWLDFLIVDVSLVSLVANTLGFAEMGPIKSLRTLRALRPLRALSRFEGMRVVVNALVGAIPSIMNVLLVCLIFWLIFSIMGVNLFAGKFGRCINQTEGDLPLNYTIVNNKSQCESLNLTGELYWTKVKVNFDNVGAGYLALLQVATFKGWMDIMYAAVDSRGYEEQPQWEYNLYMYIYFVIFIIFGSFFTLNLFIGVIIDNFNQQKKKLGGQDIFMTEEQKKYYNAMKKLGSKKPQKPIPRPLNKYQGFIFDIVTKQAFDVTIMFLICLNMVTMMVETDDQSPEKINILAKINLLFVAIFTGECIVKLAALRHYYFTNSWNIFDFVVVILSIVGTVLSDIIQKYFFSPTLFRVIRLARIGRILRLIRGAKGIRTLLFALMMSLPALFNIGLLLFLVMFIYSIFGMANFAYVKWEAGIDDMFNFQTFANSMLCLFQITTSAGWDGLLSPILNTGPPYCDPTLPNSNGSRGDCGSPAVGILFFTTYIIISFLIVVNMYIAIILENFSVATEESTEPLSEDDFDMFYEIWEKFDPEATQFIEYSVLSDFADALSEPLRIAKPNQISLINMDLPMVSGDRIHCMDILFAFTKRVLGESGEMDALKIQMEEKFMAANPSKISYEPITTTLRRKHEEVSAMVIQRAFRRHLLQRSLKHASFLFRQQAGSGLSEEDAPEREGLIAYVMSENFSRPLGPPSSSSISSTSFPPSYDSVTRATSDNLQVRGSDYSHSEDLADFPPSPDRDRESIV
INa-Peak, sequence (Q14524 whole entry): as above

For COc1ccc(S(=O)(=O)NCc2cc(CN3CCCC3)c(O)c(CN3CCCC3)c2)cc1 [HBI-3000, sulcardine sulfate], the “in vitro inhibitory effects on INa-Peak” value (INa-Peak) is listed as “relatively balanced in vitro inhibitory effects”, the “in vitro inhibitory effects on INa-Late” value (INa-Late) is listed as “relatively balanced in vitro inhibitory effects” and the “in vitro inhibitory effects on IKr” value (IKr) is listed as “relatively balanced in vitro inhibitory effects”. The ΔΔHR (healthy subjects [1]; [5]) was 1.74 bpm, the ΔΔJTp (healthy subjects [1]; [5]) was -2.87 ms and the ΔΔPDur (healthy subjects [1]; [5]) was 3.17 ms. For the same compound, the ΔΔPR (healthy subjects [1]; [5]) was 5.08 ms, the ΔΔQRS (healthy subjects [1]; [5]) was -0.08 ms and the ΔΔQTcF (healthy subjects [1]; [5]) was 1.40 ms. It also gave a ΔΔTpTe (healthy subjects [1]; [5]) of 1.95 ms, a ΔΔHR (healthy subjects [1]; [6]) of 2.21 bpm and a ΔΔJTp (healthy subjects [1]; [6]) of -5.28 ms. For the same compound, the ΔΔPDur (healthy subjects [1]; [6]) was 3.71 ms, the ΔΔPR (healthy subjects [1]; [6]) was 6.06 ms and the ΔΔQRS (healthy subjects [1]; [6]) was 0.54 ms. The ΔΔQTcF (healthy subjects [1]; [6]) was 2.35 ms, the ΔΔTpTe (healthy subjects [1]; [6]) was 2.20 ms and the ΔΔHR (healthy subjects [1]; [7]) was 4.44 bpm. It also gave a ΔΔJTp (healthy subjects [1]; [7]) of -15.09 ms, a ΔΔPDur (healthy subjects [1]; [7]) of 6.24 ms and a ΔΔPR (healthy subjects [1]; [7]) of 10.73 ms. The ΔΔQRS (healthy subjects [1]; [7]) was 3.50 ms, the ΔΔQTcF (healthy subjects [1]; [7]) was 6.89 ms and the ΔΔTpTe (healthy subjects [1]; [7]) was 3.37 ms. It also gave a ΔΔHR (healthy subjects [1]; [8]) of 7.70 bpm, a ΔΔJTp (healthy subjects [1]; [8]) of -24.60 ms and a ΔΔPDur (healthy subjects [1]; [8]) of 9.93 ms. For the same compound, the ΔΔPR (healthy subjects [1]; [8]) was 17.53 ms, the ΔΔQRS (healthy subjects [1]; [8]) was 7.81 ms and the ΔΔQTcF (healthy subjects [1]; [8]) was 13.50 ms. For the same compound, the ΔΔTpTe (healthy subjects [1]; [8]) was 5.07 ms, the ΔΔHR (healthy subjects [1]; [9]) was 12.75 bpm and the ΔΔJTp (healthy subjects [1]; [9]) was -28.10 ms. For the same compound, the ΔΔPDur (healthy subjects [1]; [9]) was 15.67 ms, the ΔΔPR (healthy subjects [1]; [9]) was 28.10 ms and the ΔΔQRS (healthy subjects [1]; [9]) was 14.50 ms. The ΔΔQTcF (healthy subjects [1]; [9]) was 23.77 ms, the ΔΔTpTe (healthy subjects [1]; [9]) was 7.72 ms and the “onset and loss of pharmacodynamic effect” value (healthy subjects [1]; about 400 mg to about 800 mg according to the protocol, human subjects) was “quickly effective and then quickly loses its effect”. For the same compound, the “Slope, ΔΔHR” value (healthy subjects [1]; [10]) was 0.0019, the “Slope, ΔΔJTp” value (healthy subjects [1]; [10]) was −0.0000 and the “Slope, ΔΔPDur” value (healthy subjects [1]; [10]) was 0.0022. The “Slope, ΔΔPR” value (healthy subjects [1]; [10]) was 0.0040, the “Slope, ΔΔQRS” value (healthy subjects [1]; [10]) was 0.0026 and the “Slope, ΔΔQTcF” value (healthy subjects [1]; [10]) was 0.0039. For the same compound, the “Slope, ΔΔTpTe” value (healthy subjects [1]; [10]) was 0.0010, the “changes in ECG parameters” value (healthy subjects [1]; single ascending iv doses 20-600 mg, healthy subjects) was “dose-proportional changes in all ECG parameters” and the “safety, tolerability” value (healthy subjects [2]) was “well tolerated with no dose limiting adverse events or arrhythmias observed”. For the same compound, the “in vitro inhibitory effects on ICa,L” value (ICa,L) was “relatively balanced in vitro inhibitory effects”, the AUC(0-t) ([3]; intravenous, 350 mg, read-out: AUC (0-24)) was 2880 ng·h/mL and the AUC(0-t) ([3]; intravenous, 350 mg, read-out: AUC (0-last)) was 3370 ng·h/mL. It also gave a Cmax ([3]; intravenous, 350 mg, read-out: Cmax) of 3080 ng/mL, an AUC(0-inf) ([3]; intravenous, 350 mg dose) of 3720 ng·h/mL and a half-life ([3]; intravenous, 350 mg dose) of 43 h. The Tmax ([3]; intravenous, 350 mg dose, read-out: Tmax) was 27 min, the Cmax ([3]; iv, 20 mg, 20 mg single iv infusion over 30 min, N=6, as used for ΔΔECG model, read-out: Cmax (Table 2)) was 135 ng/mL and the AUC(0-t) ([3]; iv, 20 mg, 20 mg single iv infusion over 30 min, healthy subjects, N=6, read-out: AUC (0-24)) was 89.7 ng·h/mL. For the same compound, the AUC(0-t) ([3]; iv, 20 mg, 20 mg single iv infusion over 30 min, healthy subjects, N=6, read-out: AUC (0-last)) was 86.2 ng·h/mL, the Cmax ([3]; iv, 20 mg, 20 mg single iv infusion over 30 min, healthy subjects, N=6, read-out: Cmax) was 131 ng/mL and the Cmax ([3]; iv, 60 mg, 60 mg single iv infusion over 30 min, N=6, as used for ΔΔECG model, read-out: Cmax (Table 2)) was 378 ng/mL. It also gave an AUC(0-t) ([3]; iv, 60 mg, 60 mg single iv infusion over 30 min, healthy subjects, N=6, read-out: AUC (0-24)) of 299 ng·h/mL, an AUC(0-t) ([3]; iv, 60 mg, 60 mg single iv infusion over 30 min, healthy subjects, N=6, read-out: AUC (0-last)) of 306 ng·h/mL and a Cmax ([3]; iv, 60 mg, 60 mg single iv infusion over 30 min, healthy subjects, N=6, read-out: Cmax) of 369 ng/mL. It also gave a Cmax ([3]; iv, 180 mg, 180 mg single iv infusion over 30 min, N=6, as used for ΔΔECG model, read-out: Cmax (Table 2)) of 1530 ng/mL, an AUC(0-t) ([3]; iv, 180 mg, 180 mg single iv infusion over 30 min, healthy subjects, N=6, read-out: AUC (0-24)) of 1270 ng·h/mL and an AUC(0-t) ([3]; iv, 180 mg, 180 mg single iv infusion over 30 min, healthy subjects, N=6, read-out: AUC (0-last)) of 1550 ng·h/mL. The Cmax ([3]; iv, 180 mg, 180 mg single iv infusion over 30 min, healthy subjects, N=6, read-out: Cmax) was 1430 ng/mL, the Cmax ([3]; iv, 360 mg, 360 mg single iv infusion over 30 min, N=5, as used for ΔΔECG model, read-out: Cmax (Table 2)) was 3120 ng/mL and the AUC(0-t) ([3]; iv, 360 mg, 360 mg single iv infusion over 30 min, healthy subjects, N=5, read-out: AUC (0-24)) was 2960 ng·h/mL. For the same compound, the AUC(0-t) ([3]; iv, 360 mg, 360 mg single iv infusion over 30 min, healthy subjects, N=5, read-out: AUC (0-last)) was 3470 ng·h/mL, the Cmax ([3]; iv, 360 mg, 360 mg single iv infusion over 30 min, healthy subjects, N=5, read-out: Cmax) was 3170 ng/mL and the Cmax ([3]; iv, 600 mg, 600 mg single iv infusion over 30 min, N=12, as used for ΔΔECG model, read-out: Cmax (Table 2)) was 5280 ng/mL. It also gave an AUC(0-t) ([3]; iv, 600 mg, 600 mg single iv infusion over 30 min, healthy subjects, N=12, read-out: AUC (0-24)) of 5810 ng·h/mL, an AUC(0-t) ([3]; iv, 600 mg, 600 mg single iv infusion over 30 min, healthy subjects, N=12, read-out: AUC (0-last)) of 6640 ng·h/mL and a Cmax ([3]; iv, 600 mg, 600 mg single iv infusion over 30 min, healthy subjects, N=12, read-out: Cmax) of 5580 ng/mL. For the same compound, the AUC(0-inf) [3, 11] was 175 ng·h/mL, the half-life [3, 11] was 0.62 h and the Tmax ([3]; 20 mg single iv infusion over 30 min, healthy subjects, N=6, read-out: Tmax Mean) was 25.2 min. The AUC(0-inf) [3, 12] was 312 ng·h/mL, the half-life [3, 12] was 9.16 h and the Tmax ([3]; 60 mg single iv infusion over 30 min, healthy subjects, N=6, read-out: Tmax Mean) was 22.8 min. For the same compound, the AUC(0-inf) [3, 13] was 2050 ng·h/mL, the half-life [3, 13] was 54.8 h and the Tmax ([3]; 180 mg single iv infusion over 30 min, healthy subjects, N=6, read-out: Tmax Mean) was 27.6 min. It also gave an AUC(0-inf) [3, 14] of 3830 ng·h/mL, a half-life [3, 14] of 43.7 h and a Tmax ([3]; 360 mg single iv infusion over 30 min, healthy subjects, N=5, read-out: Tmax Mean) of 27 min. The AUC(0-inf) [3, 15] was 7580 ng·h/mL, the half-life [3, 15] was 41.1 h and the Tmax ([3]; 600 mg single iv infusion over 30 min, healthy subjects, N=12, read-out: Tmax Mean) was 27.6 min.
For COc1ccc(S(=O)(=O)NCc2cc(CN3CCCC3)c(O)c(CN3CCCC3)c2)cc1 [sulcardine, N-[4-hydroxy-3,5-bis(1-pyrrolidinylmethyl)benzyl]-4-methoxybenzenesulfonamide], the “expected half-life for oral administration” value [4] is listed as “about 16 hours”.
